Data on one compound can be found in patent publication US20200289474A1, “METHODS OF TREATING PAIN WITH A THIAZOLINE ANTI-HYPERALGESIC” (priority 2019, published 2020).

“Also recorded” adds a separate entry of the source. A value given as a limit tells only on which side of the number the result lay.

Data set [1] can be described thus: solubility in organic/aqueous solvents. Format: physicochemical.
In data set [2] the test system is incision-induced hyperalgesia. The experiment in a line: Brennan protocol, treatment paradigm (established hyperalgesia). Format: in vivo, rat. The source says:
Two incisional pain models were used to assess Compound 1 effects on hyperalgesia. The first model is referred to as the Brennan model in which, under anesthesia, a 1 cm longitudinal incision to the skin and underlying fascia of a rat hindpaw is made. The second is a variation but is a more invasive procedure in which the skin and muscle are spread apart using forceps which creates a longer-lasting hypersensitivity.
Using the Brennan protocol and a treatment paradigm in rat, Compound 1 (10 and 30 mg/kg PO), morphine (3 mg/kg SC) or vehicle were administered daily at 24 h post-incision, and again at 48 and 72 h post-incision. Mechanical thresholds were obtained at 1 h and 2 h post-dose in all cohorts on all days.

The subject of data set [3] is STZ-induced mechanical allodynia. In words: STZ-induced diabetic rats, subsequent study. Format: in vivo, rat. The protocol: Experiments were conducted to determine the effect of Compound 1 in streptozotocin (STZ)-induced diabetic rats. In the first experiment, after obtaining mechanical threshold baselines, STZ (50 mg/kg IV) was administered (Day −7). Two days later, blood glucose levels were measured and animals that were hyperglycemic (>250 mg/dL) continued in the study. On Day 0 the baseline for mechanical thresholds prior to dosing with test articles was established for the rats. Compound 1 (10, 30, and 100 mg/kg PO), gabapentin (100 mg/kg PO) or vehicle was then administered daily for 5 days. On Day 0 mechanical thresholds were obtained at 1, 3, and 6 h post-dose. On Day 1 mechanical thresholds were measured immediately prior to dosing and then 3 h post-dose. The same regimen was followed on Day 3.
In a subsequent study, the same STZ paradigm was followed. However, in addition to the 100 mg/kg Compound 1 group, two additional cohorts received the Compound 1 100 mg/kg dose split into two or three doses per day with 50 mg/kg BID and 33 mg/kg TID. In addition to the gabapentin (100 mg/kg PO) group, a separate cohort received duloxetine (30 mg/kg PO). Additionally, in this study mechanical threshold testing was implemented every day immediately prior to dosing and 2 h post-dose for 7 days.

The nature of data set [4]: beagle dog single dose study IV 10 mg/kg, oral 10 and 100 mg/kg. Format: in vivo. The following applies: fasted beagle dogs. The protocol: In another study Compound 1 was administered IV as a single dose to fasted beagle dogs at 10 mg/kg and orally at 10 and 100 mg/kg. Compound 1 was rapidly and well absorbed orally, within 1 hr, reaching peak plasma concentrations of 15 and 108 μg/mL at 10 and 100 mg/kg doses, respectively. The compound distributed readily in tissues with a moderate steady-state volume of distribution (0.3 L/kg).

The next data set in a line: stability in hepatocytes. Format: in vitro ADME. An excerpt:
Further metabolism work in additional species will be undertaken.

Another data set deals with T1, P-gp (Homo sapiens, UniProt P08183).
T1 construct: Caco-2 cells; endogenous in cells; host or cells: Caco-2 cells
T1 sequence (P08183 whole entry): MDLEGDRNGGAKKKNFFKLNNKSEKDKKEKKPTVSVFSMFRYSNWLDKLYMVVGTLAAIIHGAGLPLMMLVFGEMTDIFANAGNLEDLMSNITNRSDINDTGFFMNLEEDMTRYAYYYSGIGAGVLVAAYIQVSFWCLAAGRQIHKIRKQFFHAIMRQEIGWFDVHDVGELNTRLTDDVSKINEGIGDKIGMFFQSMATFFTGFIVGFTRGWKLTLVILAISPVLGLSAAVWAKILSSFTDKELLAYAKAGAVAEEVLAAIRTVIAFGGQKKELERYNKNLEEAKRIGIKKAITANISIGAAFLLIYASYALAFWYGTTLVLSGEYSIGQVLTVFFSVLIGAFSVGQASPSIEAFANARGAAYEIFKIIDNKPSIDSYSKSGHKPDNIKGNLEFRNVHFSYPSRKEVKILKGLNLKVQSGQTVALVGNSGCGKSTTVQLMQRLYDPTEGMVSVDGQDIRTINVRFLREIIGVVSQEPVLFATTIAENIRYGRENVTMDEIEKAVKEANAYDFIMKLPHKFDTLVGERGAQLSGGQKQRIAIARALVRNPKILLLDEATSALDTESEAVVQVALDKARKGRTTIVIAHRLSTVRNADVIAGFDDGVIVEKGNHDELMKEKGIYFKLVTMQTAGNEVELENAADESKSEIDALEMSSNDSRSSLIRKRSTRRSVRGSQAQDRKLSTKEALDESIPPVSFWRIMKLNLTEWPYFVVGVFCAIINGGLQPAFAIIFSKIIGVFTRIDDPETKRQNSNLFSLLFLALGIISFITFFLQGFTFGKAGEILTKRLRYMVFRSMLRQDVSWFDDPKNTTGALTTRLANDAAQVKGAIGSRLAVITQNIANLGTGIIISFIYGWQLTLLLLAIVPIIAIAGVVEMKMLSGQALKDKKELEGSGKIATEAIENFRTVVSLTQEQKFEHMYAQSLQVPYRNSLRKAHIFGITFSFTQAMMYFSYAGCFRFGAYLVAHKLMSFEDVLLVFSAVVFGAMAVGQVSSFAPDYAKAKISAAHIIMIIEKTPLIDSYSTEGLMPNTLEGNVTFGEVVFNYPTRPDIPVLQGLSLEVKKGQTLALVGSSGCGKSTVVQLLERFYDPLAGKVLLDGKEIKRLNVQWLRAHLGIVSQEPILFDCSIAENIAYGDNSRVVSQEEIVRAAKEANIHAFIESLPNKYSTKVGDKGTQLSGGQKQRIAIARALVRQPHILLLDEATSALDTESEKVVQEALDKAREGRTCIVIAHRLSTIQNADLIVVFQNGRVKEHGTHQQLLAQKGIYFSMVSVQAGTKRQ
The experiment in a line: transporter inhibition, Caco-2 cells, digoxin transport. The format is in vitro ADME. (Caco-2 monolayers are a common model of the intestinal barrier.)

Another data set addresses T2, BCRP (Homo sapiens, UniProt Q9UNQ0).
T2 construct: expressed in transfected cells
T2 sequence (Q9UNQ0 1-655): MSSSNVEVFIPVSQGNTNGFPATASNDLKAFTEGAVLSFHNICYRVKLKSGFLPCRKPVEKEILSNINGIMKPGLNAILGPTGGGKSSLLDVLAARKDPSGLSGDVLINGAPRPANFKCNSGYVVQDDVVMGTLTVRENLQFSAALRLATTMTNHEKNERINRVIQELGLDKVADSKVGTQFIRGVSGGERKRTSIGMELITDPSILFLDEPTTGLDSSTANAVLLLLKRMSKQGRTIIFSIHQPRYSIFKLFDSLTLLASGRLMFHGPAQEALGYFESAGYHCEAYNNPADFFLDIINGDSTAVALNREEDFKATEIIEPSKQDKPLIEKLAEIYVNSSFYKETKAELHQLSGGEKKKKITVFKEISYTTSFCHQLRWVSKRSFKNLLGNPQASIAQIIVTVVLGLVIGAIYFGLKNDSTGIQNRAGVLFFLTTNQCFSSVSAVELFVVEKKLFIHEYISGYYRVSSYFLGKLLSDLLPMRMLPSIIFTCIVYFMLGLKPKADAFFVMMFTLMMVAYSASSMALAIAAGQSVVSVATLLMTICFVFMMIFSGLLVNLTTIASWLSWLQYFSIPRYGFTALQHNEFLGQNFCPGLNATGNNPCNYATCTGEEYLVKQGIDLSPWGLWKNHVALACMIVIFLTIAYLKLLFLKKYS
The experiment in a line: transporter inhibition, MDCKII-BCRP cells, prazosin transport. The format is in vitro ADME.

A further data set deals with T3, OAT3 (Homo sapiens, UniProt Q8TCC7).
T3 construct: expressed in transfected cells; host or cells: HEK293 cells
T3 sequence (Q8TCC7 1-542): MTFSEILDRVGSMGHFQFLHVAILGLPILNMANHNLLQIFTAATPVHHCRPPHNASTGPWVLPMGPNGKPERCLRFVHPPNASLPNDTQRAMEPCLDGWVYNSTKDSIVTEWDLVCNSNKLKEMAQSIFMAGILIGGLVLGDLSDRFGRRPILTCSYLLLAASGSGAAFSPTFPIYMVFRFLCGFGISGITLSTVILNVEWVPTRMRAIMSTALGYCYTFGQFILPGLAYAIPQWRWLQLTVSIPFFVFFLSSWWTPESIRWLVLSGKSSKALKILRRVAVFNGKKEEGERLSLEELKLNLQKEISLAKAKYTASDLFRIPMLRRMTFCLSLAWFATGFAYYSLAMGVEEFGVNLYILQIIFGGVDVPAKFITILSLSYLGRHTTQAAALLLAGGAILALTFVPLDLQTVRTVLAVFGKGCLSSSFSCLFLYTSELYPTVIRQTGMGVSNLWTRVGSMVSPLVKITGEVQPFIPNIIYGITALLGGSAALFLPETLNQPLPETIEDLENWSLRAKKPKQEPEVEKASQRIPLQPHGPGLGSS
In words: transporter inhibition, HEK293 cells, probe accumulation. Format: in vitro ADME.

Regarding `CC1(C)SC(Nc2ccccc2O)=N[C@@H]1C(=O)O.Cl` [Compound 1, (R)-2-(2-hydroxyphenylamino)-5,5-dimethyl-4,5-dihydrothiazole-4-carboxylic acid mono-hydrochloride], the solubility entry is recorded as “sparingly soluble” in data set [1] (in 2-propanol, ethanol, 10% water: isopropyl acetate, 10% water/tetrahydrofuran, and water); “freely soluble” in data set [1] (in methanol and tert-butyl alcohol: water (1:1)); “less than sparingly soluble” in data set [1] (in n-heptane, toluene, acetone, tetrahydrofuran, ethyl acetate, isopropyl acetate, t-butyl methyl ether, t-butyl alcohol). The reversal of hyperalgesia result in data set [2] (10 and 30 mg/kg PO, Day 2, 1 h and 2 h post-dosing) is listed as “full reversal of hyperalgesia”; in data set [2] (low-dose (10 mg/kg PO), Day 1, 2 h post-dose), “partial reversal”. In addition, the hyperalgesia result in data set [2] (10 and 30 mg/kg PO, Day 3 prior to dosing) is reported as “did not show hyperalgesia”; in data set [2] (low- and high-dose, Day 3 after dosing), “prevented/reversed hyperalgesia completely”. For the same compound, the “difference between dosing regimens” value in data set [3] (100 mg/kg QD vs 50 mg/kg BID vs 33 mg/kg TID) is “no clear difference”. Further, the reversal of allodynia entry in data set [3] (100 mg/kg QD, 50 mg/kg BID, 33 mg/kg TID PO, 7 days, statistical significance from Day 1) was “reversed allodynia”. For the same compound, in data set [4], the mean terminal half-life was 3.9 h. In data set [4], the “steady-state volume of distribution” value amounted to 0.3 L/kg. Also, the oral bioavailability in data set [4] (both 10 and 100 mg/kg) was 75%. The peak plasma concentration in data set [4] (oral 10 mg/kg) was 15 µg/mL; in data set [4] (oral 100 mg/kg), 108 µg/mL. In addition, the “time to peak plasma concentration” value in data set [4] (oral 10 and 100 mg/kg) was not above 1 h. For the same compound, the stability in hepatocytes entry in “stability in hepatocytes” (dog hepatocytes, mono-hydrochloride) is given as “stable; also recorded: metabolic stability”; in “stability in hepatocytes” (human hepatocytes, mono-hydrochloride) it was “stable; also recorded: metabolic stability”; in the data set “stability in hepatocytes” (monkey hepatocytes), “metabolic stability”; in the data set “stability in hepatocytes” (rat hepatocytes, mono-hydrochloride), “stable; also recorded: metabolic stability”. Also, the “inhibition” value against P-gp is on record as “does not inhibit”; at BCRP, “modestly inhibits”; against OAT3, “weakly inhibits”.
